Data: US20250011778A1, “APP iRNA Compositions and Methods of Use Thereof for Treating or Preventing Diseases Characterized by Enlarged Endosomes” (ALNYLAM PHARMACEUTICALS, INC., priority 2021, published 2025)
“Also recorded” adds a separate entry of the source.

How the values were obtained:
Type in all cases: in vivo
[1] = test system: glutamate (Glu) and N-acetylaspartate (NAA); experiment: CVN mouse study, metabolites by 1H-MRS; conditions: 1H-MRS at 12 months of age (6 months post-dose)
Description: (§1) Male and female CVN mice were bred at CRL Germany and genotyped, housed, dosed and analyzed (IHC, ^1H-MRS and open field test) at CRL Finland, as previously reported, under regular temperature, humidity and light/dark cycle conditions (Wilcock et al. J. Neurosci. 28: 1537-1545; Colton et al. J. Neuropathol. Exp. Neurol. 73: 752-769; Kohonen et al. Nat. Commun. 8: 15932). Homozygous Tg-hAPP^SwDI/mNos2^−/− (CVN) mice were produced by crossing mice expressing the vasculotropic Swedish K670N/M671L, Dutch E693Q and Iowa D694N human APP mutations under control of the Thy-1 promoter (Davis et al. J. Biol. Chem. 279: 20296-20306) with mNos2^−/− (B6 129PNos2 tau1Lau/J) mice (Laubach et al. Am. J. Physiol. 275: H2211-H2218). The study was divided into two phases. In the first phase, 15 CVN mice were dosed by ICV at 3 months of age, with terminal tissue sampling at 6 months of age and 9 months of age. In the second phase, 40 CVN mice and 20 WT mice were divided into three experimental groups, with terminal tissue sampling at 9 months of age and 12 months of age. […] Mice were placed in the center of the chamber, and their behaviors were recorded for 30 minutes. The following parameters were recorded and analyzed: distance traveled, number of vertical rearings and average velocity. […]

APP mRNA = experiment: CVN mouse study, APP mRNA knockdown after ICV dose
Description: Male and female CVN mice were bred at CRL Germany and genotyped, housed, dosed and analyzed (IHC, ^1H-MRS and open field test) at CRL Finland, as previously reported, under regular temperature, humidity and light/dark cycle conditions (Wilcock et al. J. Neurosci. 28: 1537-1545; Colton et al. J. Neuropathol. Exp. Neurol. 73: 752-769; Kohonen et al. Nat. Commun. 8: 15932). Homozygous Tg-hAPP^SwDI/mNos2^−/− (CVN) mice were produced by crossing mice expressing the vasculotropic Swedish K670N/M671L, Dutch E693Q and Iowa D694N human APP mutations under control of the Thy-1 promoter (Davis et al. J. Biol. Chem. 279: 20296-20306) with mNos2^−/− (B6 129PNos2 tau1Lau/J) mice (Laubach et al. Am. J. Physiol. 275: H2211-H2218). The study was divided into two phases. In the first phase, 15 CVN mice were dosed by ICV at 3 months of age, with terminal tissue sampling at 6 months of age and 9 months of age. In the second phase, 40 CVN mice and 20 WT mice were divided into three experimental groups, with terminal tissue sampling at 9 months of age and 12 months of age. Metabolic analyses using ^1H-MRS were at 12 months of age, respectively, as previously described (Colton et al. J. Neuropathol. Exp. Neurol. 73: 752-769). Open field test measurements were performed at approximately 9 months of age. Activity chambers (Med Associates, 27×27×20.3 cm) were equipped with infrared beams. Mice were placed in the center of the chamber, and their behaviors were recorded for 30 minutes. The following parameters were recorded and analyzed: distance traveled, number of vertical rearings and average velocity. IHC was performed as described (Wilcock et al. J. Neurosci. 28: 1537-1545; Kan et al. J Neurosci. 35: 5969-5982) using anti-amyloid-beta antibody WO2 (Sigma-Aldrich, MABN10, lot 3557956, 1:500) and anti-IBA1 antibody (Wako Pure Chemicals, 01-1941, lot LEP3218, 1:200). All data are presented as mean±standard deviation or standard error of the mean, and differences were statistically significant at the P<0.05 level. Statistical analyses were performed using the PRISM statistical program (GraphPad Software).
ICV administration was performed using stereotaxically guided Hamilton syringe and infusion system (Harvard Apparatus). A single 5-μl unilateral injection was performed in the right lateral ventricle at the following coordinates: AP=−0.5 mm (posterior from bregma), ML=+1.0 mm and DV=−1.75 mm, using standard aseptic surgical procedures. After midline skin incision on the scalp, a burr hole was generated at selected coordinates using stereotaxic coordinates and a dental drill. Thereafter, a small puncture in the dura was made at the epicenter of the burr hole, and the needle was lowered to specified depth to reach the lateral ventricle. A Hamilton syringe with a 28-gauge blunt needle was filled with a volume slightly greater than 5 μl. Administration volume of the test articles was at 5 μl and infusion rate at 1 μl min^−1 (over 5 minutes). After the infusion, the needle was left in place for a stabilization period of 5 minutes before withdrawal from the ventricle. Withdrawal was performed slowly and paused for 30 seconds when the needle tip was at the cortical area. […]

sAPPα protein = experiment: CVN mouse study, sAPPα protein after ICV dose; conditions: single 60 μg ICV, CSF
Description: as §1

IBA1 = experiment: CVN mouse study, inflammation (IBA1 IHC and Iba1 qPCR)
Description: as §1

AB40 deposits = experiment: CVN mouse study, Aβ40 (AB40) deposits by IHC; conditions: 6 months after dose, dosed pre-symptomatically, not significant (n=2-4)
Description: as §1

CVN mice = experiment: CVN mouse study, open field test; conditions: vs WT
Description: as §1

For “AD-454972: APP-targeting C16-siRNA; sense usasuga(Ahd)GfuUfCfAfucaucaaasasa, antisense VPusUfsuuug(Agn)ugaugaAfcUfucauasusc; SEQ 1435/1440 (sense UAUGAAGUUCAUCAUCAAAAA; antisense UUUUUGAUGAUGAACUUCAUAUC; C16 conjugate, chemical modifications, chemistry not fully specified)”, the “N-acetylaspartate (NAA) levels” value [1] was “little effect”, the “glutamate (Glu) levels” value ([1]; vs WT) was “normalization; also recorded: normalized” and the “reduction of APP mRNA in the cortex” value (APP mRNA; after 3 months) was “approximately 25%”. The “reduction of APP mRNA” value (APP mRNA; single 60 μg ICV, ventral cortex (VC)) was 50%, the “reduction of APP mRNA” value (APP mRNA; single 120 μg ICV, 30 days post-dose, VC) was roughly 75% and the “reduction of APP mRNA” value (APP mRNA; single 120 μg ICV, 60 days post-dose, VC) was greater than 50%. For the same substance, the “APP mRNA level” value (APP mRNA; single 120 μg ICV, 90 days, VC) was “normalizing”, the “reduction of sAPPα protein” value (sAPPα protein) was 50% and the “reduction of Iba1 mRNA expression” value (IBA1; after 6 months) was 20-30%. For the same substance, the “IBA1 IHC intensity” value (IBA1; cortex and hippocampus, rate of increase over time) was “significantly slower rate of increase”, the “reduction of AB40 deposits” value (AB40 deposits) was “approximately 50%” and the rearing frequency (CVN mice) was “normalization; also recorded: normalized”. The total distance traveled (CVN mice) was “normalization; also recorded: normalized”.
